Columns and labels:
SREBP-2 = assay: SREBP2 nuclear binding by EMSA in HepG2 cells; assay type: cell-based, human
Procedure: FIG. 5A is a graph showing in vitro time course of course of Sterol Regulatory and Binding Protein-2 (SREBP2) activity measurement with INV-75. HepG2 cells were stimulated with INV-75 (0.1 mM) for four hours and the binding activity of SREBP2 to nuclear proteins was measured by electrophoretic migration shift assay (EMSA). A total of three experiments were performed. *, p<0.01 by ANOVA compared to vehicle.
FIG. 5B is a graph showing the dose dependent effects of INV-75 on SREBP2 activity. HepG2 cells were stimulated with multiple concentrations of INV-75 for 1 hour and binding activity of SREBP2 in nuclear proteins was measured by electrophoretic migration shift assay (EMSA). A total of three experiments were performed. *, p<0.01 by ANOVA compared to vehicle.
A family of transcription factors designated SREBP (sterol regulatory element binding proteins) regulate synthesis of cholesterol and fatty acids. Of these, SREBP-2 mainly regulates cholesterol biosynthesis by alteration of cholesterol synthesis enzymes and LDL receptor expression (SREBP-1c mainly regulates fatty acid synthesis). […] The time course with this dose and dose dependence was analyzed. Next we assessed the expression of both precursor and mature form of SREBP-2 in the cytoplasm by western analysis. Both time course and dose dependence of mature form of SREBP-2 was analyzed.

PPARα = molecular target: T1, PPARα (Homo sapiens, UniProt Q07869); assay: GAL4-PPARα-LBD luciferase assay in HepG2 cells; assay type: cell-based
T1 construct: HepG2 cells transfected with yeast GAL4-PPARα-LBD plasmid+UAS-Luciferase; expressed in transfected cells; host or cells: HepG2
Source text: (§1) We used a reporter gene assay in HepG2 cells to screen for agonists of the peroxisome proliferator-activated receptors. Peroxisome proliferator-activated receptors (PPARs) and other members of the nuclear hormone receptor family are important drug targets for the treatment of metabolic diseases. PPARs play crucial roles in lipid and glucose metabolism, respectively. Therefore, screening methods that help to rapidly identify activators of these receptors should be of considerable value. INV-75 activated a classic PPARα gene, Acetyl-CoA Oxidase (ACO) in a dose dependent and time dependent fashion (FIG. 6A). The time course experiment was performed in presence of INV-75 up to 15 hours. […] We next tested the specificity of INV-75 for PPARα by performing experiments in HepG2 cells transfected with yeast GAL4-PPARα-LBD plasmid+UAS-Luciferase; GAL4-PPARδ-LBD plasmid+UAS-Luciferase and […]. The PPARα, PPARδ and PPARγ binding assays were performed using multiple concentrations of INV-75 (1 μM, 10 μM, 100 μM and 1000 μM). The level of luciferase activity corresponded to the degree of PPAR activation. The results were compared with classic PPAR agonists such as WY-14643 (PPARα agonist), Bezafibrate (PPARδ agonist) and Rosiglitazone ([…]).

PPARδ = molecular target: T2, PPARδ (Homo sapiens, UniProt Q03181); assay: GAL4-PPARδ-LBD luciferase assay in HepG2 cells; assay type: cell-based; details: 1 μM to 1000 μM
T2 construct: GAL4-PPARδ-LBD plasmid+UAS-Luciferase; expressed in transfected cells; host or cells: HepG2
Source text: as §1

PPARγ = molecular target: T3, PPARγ (Homo sapiens, UniProt P37231); assay: GAL4-PPARγ-LBD luciferase assay in HepG2 cells; assay type: cell-based; details: 1 μM to 1000 μM
T3 construct: GAL4-PPARδ-LBD plasmid+UAS-Luciferase and GAL4-PPARα-LBD plasmid+UAS-Luciferase; expressed in transfected cells; host or cells: HepG2
Source text: as §1

[1] = test system: Watanabe Heritable Hyperlipidemic Rabbits (WHHL); assay: Morphometric analysis of atherosclerotic burden in WHHL rabbits; assay type: in vivo, rabbit; details: end of 12 weeks, H&E morphometry
Procedure: Segments of descending thoracic aorta were embedded in Optimal Cutting Temperature compound (Tissue-Tek, Sakura Finetek USA Inc, Torrance, Calif.) and frozen on dry ice. En face sections were then prepared. To analyze atherosclerotic burden, 8 sections (4 μm thick) were collected at intervals of 20 μm. After H&E staining, each section was digitized with a digital camera and analyzed using a microscope (Zeiss Axioskop with Spot I digital camera, Jena, Germany) with National Institutes of Health (NIH) Image software version 1.61. Results were expressed as mm^2. Morphometric assessment of plaque burden in the thoracic aorta at the end of 12 weeks corroborated the anti-atherosclerotic effects of INV-75 by MRI on the abdominal aorta. The summary of atherosclerotic burden in abdominal aorta of control and INV-75 groups of WHHL rabbits are presented. n=5/group. *, p<0.05 vs control animals, n=4, using un-paired t test. Approximately 60% reduction in atherosclerosis burden in WHHL rabbits compared to control group was observed (FIG. 9).

[2] = test system: Watanabe Heritable Hyperlipidemic Rabbits (WHHL); assay: Superoxide by dihydroethidium staining of WHHL aorta sections; assay type: in vivo, rabbit
[3] = test system: New Zealand White rabbits; assay: Oil Red O staining of abdominal aorta of NZW rabbits; assay type: in vivo, rabbit
Procedure: Animal Model: 15 male New Zealand White rabbits (Charles River, Mass.) were fed with high fat diet (HFD) (Harlan Teklad rabbit diet with 0.5% cholesterol, TD 87251). After 4 weeks of high fat diet, rabbits were randomized into three different treatment groups, normal control (n=5), lipoic acid (100 mg/kg/day) (n=5), INV 70-65 (100 mg/kg/day) (n=5). These drugs were administered to the animals via their chow by mixing the drugs with the high fat diet. A fixed amount of chow and drugs admixed in the chow were fed to all animals every day after carefully calculating food intake in each rabbit. Drugs were dissolved in 100% ethanol and sprayed onto the diet and kept under vacuum to let ethanol evaporate overnight. Two (2) weeks after drug or control admixed HFD, all rabbits underwent aortic balloon denudation surgeries followed by 12 weeks of continued administration of drug or controls admixed with HFD. FIG. 29 provides an outline of the experimental design.
Hypercholesterolemia and oxidative stress play an important role in the development of atherosclerosis. The rabbits were sacrificed and abdominal aortas were fixed in 4% PFA (paraformaldehyde). The lipid deposition in the aortic wall was then visualized by oil red staining.

T1 sequence (Q07869 239-466 limits assumed): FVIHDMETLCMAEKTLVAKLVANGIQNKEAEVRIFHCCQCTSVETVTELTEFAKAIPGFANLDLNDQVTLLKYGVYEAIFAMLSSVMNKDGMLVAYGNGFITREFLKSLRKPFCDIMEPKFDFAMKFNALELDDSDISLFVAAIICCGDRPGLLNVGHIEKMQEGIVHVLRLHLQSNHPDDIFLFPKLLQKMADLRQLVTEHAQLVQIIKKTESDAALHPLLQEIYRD
T3 sequence (P37231 238-503 limits assumed, species assumed): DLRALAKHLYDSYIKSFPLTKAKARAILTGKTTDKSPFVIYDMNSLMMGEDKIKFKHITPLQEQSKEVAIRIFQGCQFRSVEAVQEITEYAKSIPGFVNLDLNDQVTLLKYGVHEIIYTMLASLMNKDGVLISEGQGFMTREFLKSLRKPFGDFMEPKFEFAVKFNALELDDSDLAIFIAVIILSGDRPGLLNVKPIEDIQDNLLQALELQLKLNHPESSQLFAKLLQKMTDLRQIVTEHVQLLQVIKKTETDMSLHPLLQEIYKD
T2 sequence (Q03181 211-439 limits assumed, species assumed): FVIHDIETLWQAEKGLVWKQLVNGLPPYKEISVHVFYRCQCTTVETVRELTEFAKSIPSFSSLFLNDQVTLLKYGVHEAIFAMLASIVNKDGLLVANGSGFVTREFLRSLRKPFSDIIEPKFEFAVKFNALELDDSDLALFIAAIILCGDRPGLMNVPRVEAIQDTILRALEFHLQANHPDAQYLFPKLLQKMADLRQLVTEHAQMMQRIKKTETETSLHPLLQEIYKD

SMILES | time to increased nuclear binding of SREBP-2 (SREBP-2; HepG2, 0.1 mM) | dose effective in inducing translocation of SREBP-2 to the nucleus (SREBP-2; HepG2, 1 hour) | agonist properties on PPARα activation (PPARα) | PPARα ligand binding activity (PPARα; 1 μM to 1000 μM) | effects on PPARδ (PPARδ) | effects on PPARγ (PPARγ) | reduction in atherosclerosis burden compared to control group [1] | basal super oxide production in the aorta (DHE) [2] | reduction in lipid deposition in the aortic wall compared to controls ([3]; NZW) | reduction in lipid deposition in the aortic wall compared to lipoic acid ([3]; NZW) | lipid content in the plaque area (Oil Red O) compared to the control group ([3]; NZW abdominal aorta)
CC(=O)Oc1cc2c(cc1[N+](=O)[O-])OCO2 [INV-75, 3,4-methylenedioxy-6-nitrophenyl acetate] | < 1 h | ≥ 100 nM | selective but partial agonist | increased | without effects | without effects | Approximately 60% | reduction |  |  | 
O=C(CCCCC1CCSS1)Oc1ccc2c(c1)OCO2 (centres unmarked) [INV-7065, 3,4-Methylenedioxy phenyl lipoate] |  |  |  |  |  |  |  |  | about 80% | about 40% | reduction
